From US6608043B1, “Remedies for joint diseases” (Takata Seiyaku Co., Ltd., priority 1999, dated 2003) come the findings set out here.

The test system of series [1] is synovial cells (RASC) from rheumatoid arthritis (RA) patients. The series can be described thus: Synovial cell proliferation inhibition (MTT method), RASC. Type of series: cell-based, human. The settings on record: MTT on days 4, 8 and 12, HA/Zn and Na-HA 10-300 μg/ml, Zn at 1/10 of these, vs non-drug addition group. The method, then:
(§1) The effects of the complex of hyaluronic acid and zinc (HA/Zn) of the present invention, and the effects of sodium hyaluronate (Na-HA) and zinc (Zn) as comparison controls were tested on synovial cells (RASC) from rheumatoid arthritis (RA) patients, synovial cells (OASC) from osteoarthritis (OA) patients, and synovial cells (TASC) from traumatic arthritis (TA) patients.
(§2) The test substances used consisted of HA/Zn (Lot No. A65242, 1% solution, Gedeon-Richter, Ltd.), sodium hyaluronate (Na-HA, Lot No. KK4001, Q.P. Corp.), and zinc chloride (Zn, Lot No. ESH1413, Wako Pure Chemical Ind., Ltd.). Quantitative values of the contents of hyaluronic acid and zinc contained in the above-mentioned HA/Zn solution (specific gravity; d^2020=1.0134) were determined in advance. Since the amount of hyaluronic acid was 99% (105.0% when calculated as sodium hyaluronate) and the amount of zinc was 1.07 mg/ml when the above-mentioned 1% is assigned a value of 100, the weight ratio of hyaluronic acid to zinc in said HA/Zn was considered to be 10:1 (Na-HA:Zn). The test substances were tested at concentrations of 10 μg/ml, 30 μg/ml, 100 μg/ml, 150 μg/ml, 200 μg/ml, 250 μg/ml and 300 μg/ml for HA/Zn, the same concentrations as HA/Zn for Na-HA, and at 1/10 the concentrations of HA/Zn for Zn.
(§3) Synovial membrane tissue was sampled from the knee joint of rheumatoid arthritis (RA) patients (5 cases, 65.6±10.6 years old) and osteoarthritis (OA) patients (6 cases, 73.4±8.9 years old) during artificial joint replacement surgery, and from the knee joint of traumatic arthritis (TA) patients (6 cases, 25.6±6.7 years old) during arthroscopic surgery. […]
(§4) The synovial cells (SC) were inoculated into a microplate (96 wells, Iwaki) at a concentration of 3.55×10^3 cells/0.1 ml/well (1×10^4 cells/cm^2), and pre-cultured for 2 days at 37° C. in a vapor phase consisting of 5% CO2 and 95% air. […] The results were expressed with the optical absorbance that indicated a positive correlation with the number of cells. […]

Series [2] deals with synovial cells (OASC) from osteoarthritis (OA) patients. Kind of series: Synovial cell proliferation inhibition (MTT method), OASC. Type of series: cell-based, human. As to conditions: MTT on days 4, 8 and 12, HA/Zn and Na-HA 10-300 μg/ml, Zn at 1/10 of these, vs non-drug addition group. The protocol:
as §1, §2, §3, §4
(Tetrazolium dyes change colour on reduction, which living cells bring about.)

Series [3] relates to synovial cells (TASC) from traumatic arthritis (TA) patients. The series can be described thus: Synovial cell proliferation inhibition (MTT method), TASC. The format is cell-based, human. The settings on record: MTT on days 4, 8 and 12, HA/Zn and Na-HA 10-300 μg/ml, Zn at 1/10 of these, vs non-drug addition group. The method, then: as §1, §2, §3, §4
Series [4] deals with matrix metalloproteinase MMP-9. The series can be described thus: Suppression of MMP-9 in synovial cell culture supernatant (EIA). Type of series: cell-based, human. As to conditions: for production of MMP-9 relative to control (non-drug addition = 100%): culture supernatant day 8, HA/Zn and Na-HA 100 μg/ml, Zn 10 μg/ml, divided by MTT absorbance. The protocol:
Synovial cells were inoculated into culture dishes (diameter: 35 mm, Iwaki) to a concentration of 10×10^4 cells/2 ml/dish (1×10^4 cells/cm^2), and pre-cultured for 2 days at 37° C. in a vapor phase consisting of 5% CO2 and 95% air. Later, the media were replaced with media containing each drug, and the culture supernatants were sampled on day 8 of culturing under the same conditions followed by storage at −80° C. until measurement. The added concentrations of HA/Zn and Na-HA were 100 μg/ml (final concentration), while the concentration of Zn was 10 μg/ml (final concentration). The amount of matrix metalloproteinase MMP-9 in the supernatant was measured using EIA (Enzyme Immunoassay). In order to examine the results calculated as concentration in the supernatant per cell, the results were converted to values divided by the optical absorbance value of synovial cells by MTT at that time. In addition, this value was further expressed as a relative value to the control of the individual value of each drug addition group while assigning the control (non-drug addition group) a value of 100%.

Series [5] can be described thus: Systemic toxicity after subcutaneous administration, rats. Type of series: in vivo. The settings on record: physically allowed maximum dose 200 mg/kg. The method, then: (§5) Administration methods normally performed for pharmaceuticals can be used for the hyaluronic acid/zinc complex of the present invention. Namely, the above-mentioned complex can be administered orally or parenterally, and administration by injection is particularly preferable. The effective dose of the hyaluronic acid/zinc complex of the present invention is 0.01 mg to 1 mg, and preferably 0.03 mg to 0.5 mg per joint per administration per person. […] The agent for treatment of arthritic disease and matrix metalloproteinase MMP-9 suppresser of the present invention can contain 0.001% to 1%, and preferably 0.01% to 0.5%, of the hyaluronic acid/zinc complex of the present invention with a routinely used pharmaceutical carrier. Examples of routinely used pharmaceutical carriers include bases typically used in therapeutic applications such as chitosan, starch, pectin, HPMC and sodium alginate, binders such as tragacanth gum, gum arabic, cornstarch and gelatin, vehicles such as crystalline cellulose and mannitol, disintegrating agents such as cornstarch, α-starch and alginic acid, lubricants such as magnesium stearate, sweeteners such as sucrose, lactose and saccharin, flavorings such as peppermint, mint and cherry, and antiseptics.

Series [6] can be described thus: Systemic toxicity after subcutaneous administration, mice. The format is in vivo. The settings on record: physically allowed maximum dose 200 mg/kg. The protocol: as §5

A value given as a limit tells only on which side of the number the result lay.

As to `[Cl-].[Cl-].[Zn+2]` [Zn, zinc chloride], the “proliferation of synovial cells (inhibition)” value (shortened to “proliferation … (inhibition)”) in series [1], in series [2] and in series [3] was “significant inhibition” in each case. Moreover, the “production of MMP-9 relative to control (non-drug addition = 100%)” value in series [4] was 50%.

Consider “complex of hyaluronic acid and zinc [HA/Zn]”, for which the “proliferation … (inhibition)” value in series [1], in series [2] and in series [3] was “significantly inhibited dependent on the amount added” in each case. Also, in series [4], the “production of MMP-9 relative to control (non-drug addition = 100%)” value worked out at 0%. For the same compound, in series [4] (synovial cells originating in rheumatoid arthritis, in vitro), the “concentration at which MMP-9 is suppressed” value was no more than 100 µg/mL. Besides, the “symptoms of systemic toxicity” value in series [5] and in series [6] was “not observed to cause symptoms of systemic toxicity” throughout.

Take sodium hyaluronate [Na-HA]: the “proliferation … (inhibition)” value in series [1], in series [2] and in series [3] was “not significantly inhibited” throughout. In series [4], the “production of MMP-9 relative to control (non-drug addition = 100%)” value stood at 100%.
